Assay results: patent US6355799B1, “Substituted benzene compounds, process for their preparation, and herbicidal and defoliant compositions containing them” (ISK Americas Incorporated, priority 1997, dated 2002)

Tests used:
Format in all cases: in vivo
[1] = test system: green foxtail (Setaria viridis, SETVI); assay: Pre-emerge test, greenhouse herbicide activity screening; conditions: pre-emerge, 14 days after application, rating scale 0-100
How it was run: (§1)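 Compounds in acetone were track-sprayed at 187 l/ha, 15–1000 g ai/ha, onto sandy loam pots. Pre-emerge seeds were sown one day before spraying, with surface watering afterwards. Post-emerge plants were at the 2–3 leaf stage and sprayed with 0.25% v/v non-ionic surfactant. Injury was rated 0–100 at 14 days.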

[2] = test system: johnsongrass (Sorghum halepense, SORHA); assay: as above; conditions: pre-emerge, 14 days after application, rating scale 0-100
How it was run: as §1

[3] = test system: common ragweed (Ambrosia artemisizfolia L., AMBEL); assay: as above; conditions: pre-emerge, 14 days after application, rating scale 0-100
How it was run: as §1

[4] = test system: lambsquarters (Chenopodium album, CHEAL); assay: as above; conditions: pre-emerge, 14 days after application, rating scale 0-100
How it was run: as §1

[5] = test system: sicklepod (Cassia obtusifolia, CASOB); assay: as above; conditions: pre-emerge, 14 days after application, rating scale 0-100
How it was run: as §1

[6] = test system: large crabgrass (Digitaria sanguinalis, DIGSA); assay: as above; conditions: pre-emerge, 14 days after application, rating scale 0-100
How it was run: as §1

[7] = test system: ivyleaf morningglory (Ipomoea hederacea, IPOHE); assay: as above; conditions: pre-emerge, 14 days after application, rating scale 0-100
How it was run: as §1

[8] = test system: velvetleaf (Abutilon theophrasti, ABUTH); assay: as above; conditions: pre-emerge, 14 days after application, rating scale 0-100
How it was run: as §1

[9] = test system: barnyardgrass (Echinochloa crus-galli, ECHCG); assay: as above; conditions: pre-emerge, 14 days after application, rating scale 0-100
How it was run: as §1

[10] = test system: redroot pigweed (Amaranthus retroflexus, AMARE); assay: as above; conditions: pre-emerge, 14 days after application, rating scale 0-100
How it was run: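 Visual ratings on a 0-100 scale (0 no damage, 100 all plants dead) were taken at 14 days after treatment. Rates of 15-1000 g ai/ha in acetone, 187 l/ha, were sprayed onto soil one day after planting (pre-emerge) or onto 2-3 leaf plants with 0.25% v/v surfactant (post-emerge).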

[11] = test system: upland rice (Oryza sp., var. Tebonnet, RICE); assay: Post-emerge test, crop safety; conditions: post-emerge, 14 days after application, rating scale 0-100
How it was run: as §1

[12] = test system: field corn (Zea mays L., var. Dekalb 535, CORN); assay: Post-emerge test, crop safety; conditions: post-emerge, 14 days after application, rating scale 0-100
How it was run: as §1

[13] = test system: green foxtail (Setaria viridis, SETVI); assay: Post-emerge test, greenhouse herbicide activity screening; conditions: post-emerge, 14 days after application, rating scale 0-100
How it was run: (§2)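 Applied at 15–1000 g ai/ha from acetone in 187 l/ha spray volume. Post-emergence applications included 0.25% v/v non-ionic surfactant and reached plants sown 8–21 days before. Pre-emergence applications were incorporated by surface watering. Efficacy or crop damage was rated on a 0–100 scale after 14 days.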

[14] = test system: redroot pigweed (Amaranthus retroflexus, AMARE); assay: as above; conditions: post-emerge, 14 days after application
How it was run: as §2

[15] = test system: johnsongrass (Sorghum halepense, SORHA); assay: as above; conditions: post-emerge, 14 days after application, rating scale 0-100
How it was run: as §2

[16] = test system: lambsquarters (Chenopodium album, CHEAL); assay: as above; conditions: post-emerge, 14 days after application, rating scale 0-100
How it was run: as §2

[17] = test system: sicklepod (Cassia obtusifolia, CASOB); assay: as above; conditions: post-emerge, 14 days after application, rating scale 0-100
How it was run: as §2

[18] = test system: large crabgrass (Digitaria sanguinalis, DIGSA); assay: as above; conditions: post-emerge, 14 days after application, rating scale 0-100
How it was run: as §2

[19] = test system: ivyleaf morningglory (Ipomoea hederacea, IPOHE); assay: as above; conditions: post-emerge, 14 days after application, rating scale 0-100
How it was run: as §2

[20] = test system: velvetleaf (Abutilon theophrasti, ABUTH); assay: as above; conditions: post-emerge, 14 days after application, rating scale 0-100
How it was run: as §2

[21] = test system: barnyardgrass (Echinochloa crus-galli, ECHCG); assay: as above; conditions: post-emerge, 14 days after application, rating scale 0-100
How it was run: as §2

[22] = test system: upland rice (Oryza sp., var. Tebonnet, RICE); assay: Pre-emerge test, crop safety; conditions: pre-emerge, 14 days after application, rating scale 0-100
How it was run: as §1

[23] = test system: field corn (Zea mays L., var. Dekalb 535, CORN); assay: Pre-emerge test, crop safety; conditions: pre-emerge, 14 days after application, rating scale 0-100
How it was run: as §1

CCOC(=O)C(Cl)Cc1c(OC)c(Cl)cc(F)c1-n1nc(C(F)(F)F)n(C)c1=O (stereo not shown) [14-61]
phytotoxicity rating SETVI ([1]; 63 g ai/ha): 0
phytotoxicity rating SETVI ([1]; 250 g ai/ha): 60
phytotoxicity rating SORHA ([2]; 63 g ai/ha): 0
phytotoxicity rating SORHA ([2]; 250 g ai/ha): 20
phytotoxicity rating AMBEL ([3]; 63 g ai/ha): 0
phytotoxicity rating AMBEL ([3]; 250 g ai/ha): 0
phytotoxicity rating CHEAL ([4]; 63 g ai/ha): 0
phytotoxicity rating CHEAL ([4]; 250 g ai/ha): 80
phytotoxicity rating CASOB ([5]; 63 g ai/ha): 0
phytotoxicity rating CASOB ([5]; 250 g ai/ha): 0
phytotoxicity rating DIGSA ([6]; 63 g ai/ha): 0
phytotoxicity rating DIGSA ([6]; 250 g ai/ha): 40
phytotoxicity rating IPOHE ([7]; 63 g ai/ha): 0
phytotoxicity rating IPOHE ([7]; 250 g ai/ha): 20
phytotoxicity rating ABUTH ([8]; 63 g ai/ha): 0
phytotoxicity rating ABUTH ([8]; 250 g ai/ha): 40
phytotoxicity rating ECHCG ([9]; 63 g ai/ha): 0
phytotoxicity rating ECHCG ([9]; 250 g ai/ha): 0
phytotoxicity rating AMARE ([10]; 63 g ai/ha): 30
phytotoxicity rating AMARE ([10]; 250 g ai/ha): 95
Post-emerge Herbicidal Activity RICE (crop damage rating) ([11]; 63 g ai/ha): 0
Post-emerge Herbicidal Activity RICE (crop damage rating) ([11]; 250 g ai/ha): 30
Post-emerge Herbicidal Activity CORN (crop damage rating) ([12]; 63 g ai/ha): 0
Post-emerge Herbicidal Activity CORN (crop damage rating) ([12]; 250 g ai/ha): 70
Post-emerge Herbicidal Activity SETVI (phytotoxicity rating) ([13]; 63 g ai/ha): 0
Post-emerge Herbicidal Activity SETVI (phytotoxicity rating) ([13]; 250 g ai/ha): 20
Post-emerge Herbicidal Activity AMARE (phytotoxicity rating) ([14]; 63 g ai/ha, rating scale 0-100 (0 no damage, 100 complete death)): 20
Post-emerge Herbicidal Activity AMARE (phytotoxicity rating) ([14]; 250 g ai/ha, rating scale 0-100): 60
Post-emerge Herbicidal Activity SORHA (phytotoxicity rating) ([15]; 63 g ai/ha): 0
Post-emerge Herbicidal Activity SORHA (phytotoxicity rating) ([15]; 250 g ai/ha): 20
Post-emerge Herbicidal Activity CHEAL (phytotoxicity rating) ([16]; 63 g ai/ha): 40
Post-emerge Herbicidal Activity CHEAL (phytotoxicity rating) ([16]; 250 g ai/ha): 75
Post-emerge Herbicidal Activity CASOB (phytotoxicity rating) ([17]; 63 g ai/ha): 0
Post-emerge Herbicidal Activity CASOB (phytotoxicity rating) ([17]; 250 g ai/ha): 30
Post-emerge Herbicidal Activity DIGSA (phytotoxicity rating) ([18]; 63 g ai/ha): 0
Post-emerge Herbicidal Activity DIGSA (phytotoxicity rating) ([18]; 250 g ai/ha): 70
Post-emerge Herbicidal Activity IPOHE (phytotoxicity rating) ([19]; 63 g ai/ha): 20
Post-emerge Herbicidal Activity IPOHE (phytotoxicity rating) ([19]; 250 g ai/ha): 50
Post-emerge Herbicidal Activity ABUTH (phytotoxicity rating) ([20]; 63 g ai/ha): 30
Post-emerge Herbicidal Activity ABUTH (phytotoxicity rating) ([20]; 250 g ai/ha): 60
Post-emerge Herbicidal Activity ECHCG (phytotoxicity rating) ([21]; 63 g ai/ha): 0
Post-emerge Herbicidal Activity ECHCG (phytotoxicity rating) ([21]; 250 g ai/ha): 60
phytotoxicity rating RICE ([22]; 63 g ai/ha): 0
phytotoxicity rating RICE ([22]; 250 g ai/ha): 0
phytotoxicity rating CORN ([23]; 63 g ai/ha): 0
phytotoxicity rating CORN ([23]; 250 g ai/ha): 0
